Data on five molecules can be found in US8507476B2, “Substituted arylamide diazepinopyrimidone derivatives” (Sanofi, priority 2008, dated 2013).

Structures are written as SMILES. Where a name gives a salt, the structure may show the parent alone.

For one data set, the target named is GSK3β (Homo sapiens, UniProt P49841). The data set can be described thus: Inhibitory activity against GSK3β (33P-ATP phosphorylation of prephosphorylated GS1 peptide). The data set is classed as biochemical. The settings on record: protocol 4: commercial GSK3beta (Millipore), 7.5 μM GS1 peptide, 10 μM ATP, 90 minutes at room temperature. On the procedure: Inhibitory Activity of the Medicament of the Present Invention Against GSK3β Four different protocols can be used. In a first protocol: 7.5 μM of prephosphorylated GS1 peptide and 10 μM ATP (containing 300,000 cpm of ^33P-ATP) were incubated in 25 mM Tris-HCl, pH 7.5, 0.6 mM DTT, 6 mM MgCl2, 0.6 mM EGTA, 0.05 mg/ml BSA buffer for 1 hour at room temperature in the presence of GSK3beta (total reaction volume: 100 microliters). In a second protocol: 4.1 μM of prephosphorylated GS1 peptide and 42 μM ATP (containing 260,000 cpm ^33P-ATP) were incubated in 80 mM Mes-NaOH, pH 6.5, 1 mM Mg acetate, 0.5 mM EGTA, 5 mM 2-mercaptoethanol, 0.02% Tween 20, 10% glycerol buffer for 2 hours at room temperature in the presence of GSK3beta. In a third protocol: 7.5 μM of prephosphorylated GS1 peptide and 10 μM ATP (containing 300,000 cpm of ^33P-ATP) were incubated in 50 mM Hepes, pH 7.2, 1 mM DTT, 1 mM MgCl2, 1 mM EGTA, 0.01% Tween 20 buffer for one hour at room temperature in the presence of GSK3beta (total reaction volume: 100 microliters). In a fourth protocol: 7.5 μM of prephosphorylated GS1 peptide and 10 μM ATP (containing 300,000 cpm of ^33P-ATP) were incubated in 50 mM Hepes, pH 7.2, 1 mM DTT, 1 mM MgCl2, 1 mM EGTA, 0.01% Tween 20 buffer for 90 minutes at room temperature in the presence of commercial GSK3beta (Millipore) (total reaction volume: 100 microliters). Inhibitors were solubilised in DMSO (final solvent concentration in the reaction medium, 1%). The reaction was stopped with 100 microliters of a solution made of 25 g polyphosphoric acid (85% P2O5), 126 ml 85% H3PO4, H2O to 500 ml and then diluted to 1:100 before use. An aliquot of the reaction mixture was then transferred to Whatman P81 cation exchange filters and rinsed with the solution described above. Incorporated ^33P radioactivity was determined by liquid scintillation spectrometry. The phosphorylated GS-1 peptide had the following sequence: NH2-[…](P)EDEE-COOH. (Woodgett, J. R. (1989) Analytical Biochemistry 180, 237-241.
Chain of GSK3β (P49841 whole entry): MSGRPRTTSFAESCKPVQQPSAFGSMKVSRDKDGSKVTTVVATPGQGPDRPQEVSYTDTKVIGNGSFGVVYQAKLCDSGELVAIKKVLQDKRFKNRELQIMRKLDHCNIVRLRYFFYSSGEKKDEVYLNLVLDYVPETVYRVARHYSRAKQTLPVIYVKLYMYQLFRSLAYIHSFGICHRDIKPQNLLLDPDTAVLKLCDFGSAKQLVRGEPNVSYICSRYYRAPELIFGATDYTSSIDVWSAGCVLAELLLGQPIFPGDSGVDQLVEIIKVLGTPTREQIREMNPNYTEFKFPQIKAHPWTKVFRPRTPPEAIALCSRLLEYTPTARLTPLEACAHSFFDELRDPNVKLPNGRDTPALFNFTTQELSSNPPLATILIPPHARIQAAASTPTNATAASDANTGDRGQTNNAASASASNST

In general, melting point refers to the temperature, or range, at which the solid turns liquid. Usually IC50 stands for the concentration that gives 50% inhibition. High values mean weaker potency in that assay, low ones greater potency in that assay.

Regarding `COc1cc(Cl)ccc1C(=O)NC1CN(C2CCCC2)CCn2c1nc(-c1ccncn1)cc2=O` (racemic) (as salt: HCl) [compound 7, (+/−)-4-Chloro-N-(7-cyclopentyl-4-oxo-2-pyrimidin-4-yl-4,5,6,7,8,9-hexahydro-1,4a,7-triaza-benzocyclohepten-9-yl)-2-methoxy-benzamide], the melting point fell in the range of 243 to 245 °C.
For `COc1cc(Cl)ccc1C(=O)NC1CN(C2CCCC2)CCn2c1nc(-c1ccncn1)cc2=O` (racemic) [compound 7, (+/−)-4-Chloro-N-(7-cyclopentyl-4-oxo-2-pyrimidin-4-yl-4,5,6,7,8,9-hexahydro-1,4a,7-triaza-benzocyclohepten-9-yl)-2-methoxy-benzamide], at GSK3β, half-maximal inhibition (IC50) was put at 46 nM.
Take `CCOC(=O)N1CCn2c(nc(-c3ccncn3)cc2=O)C(NC(=O)c2ccccc2OC)C1` (racemic) [compound 21, (+/−)-9-(2-Methoxy-benzoylamino)-4-oxo-2-pyrimidin-4-yl-5,6,8,9-tetrahydro-4H-1,4a,7-triaza-benzocycloheptene-7-carboxylic acid ethyl ester]: the melting point lay in the range of 182 to 184 °C. At GSK3β, this molecule showed an IC50 of 5 nM.
`CCOC(=O)N1CCn2c(nc(-c3ccncc3)cc2=O)C(NC(=O)c2ccc(F)cc2OC)C1` (racemic) [compound 35, (+/−)-9-(4-Fluoro-2-methoxy-benzoylamino)-4-oxo-2-pyridin-4-yl-5,6,8,9-tetrahydro-4H-1,4a,7-triaza-benzocycloheptene-7-carboxylic acid ethyl ester] had a melting point of 210 to 212 °C. On GSK3β, this molecule yielded an IC50 of 12 nM.
With `COc1cc(Cl)ccc1C(=O)NC1CNCCn2c1nc(-c1ccncn1)cc2=O` (single isomer, unassigned; (+)) [Compound No. 12, (+)-4-Chloro-2-methoxy-N-(4-oxo-2-pyrimidin-4-yl-4,5,6,7,8,9-hexahydro-1,4a,7-triaza-benzocyclohepten-9-yl)-benzamide], the melting point lay within 240 to 242 °C. At GSK3β, this molecule came in with an IC50 of 0.3 nM.
